{"source": "patent US8765396B2", "about": "“Method of screening a test agent for activity to modulate an oxidative demethylation enzyme” (Arbor Assays LLC, priority 2009, dated 2014)", "biological_target": "T1, human histone demethylase JMJD2A (catalytic domain, residues 1-350) (Homo sapiens, UniProt O75164)", "T1 construct": "recombinantly produced catalytic domain, residues 1-350, of the human histone demethylase JMJD2A", "T1 sequence (O75164 1-350)": "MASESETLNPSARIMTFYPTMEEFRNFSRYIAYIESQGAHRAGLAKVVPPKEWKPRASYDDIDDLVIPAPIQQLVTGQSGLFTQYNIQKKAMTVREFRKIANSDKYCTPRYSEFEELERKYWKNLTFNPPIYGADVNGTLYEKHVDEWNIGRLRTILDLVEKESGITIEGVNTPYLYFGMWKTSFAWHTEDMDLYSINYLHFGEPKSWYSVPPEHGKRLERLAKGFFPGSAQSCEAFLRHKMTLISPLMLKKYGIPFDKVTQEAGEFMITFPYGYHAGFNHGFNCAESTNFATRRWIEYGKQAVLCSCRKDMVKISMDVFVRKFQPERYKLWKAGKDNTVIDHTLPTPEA", "assay": "Jumonji type histone demethylase (JMJD2A) activity assay with Luminos reagent formaldehyde fluorescence detection", "assay_type": "biochemical", "conditions": "1.0 mM NOG; 0.5 mM 2-OG, 0.3 mM H3K9me3 peptide, 5 μM JMJD2A, 37° C., 30 minutes; triplicate", "procedure": "A series of demethylase assays with Luminos reagent are performed. These assays are conducted with recombinantly produced catalytic domain, residues 1-350, of the human histone demethylase JMJD2A that demethylates the trimethylated forms of Lys9 and Lys36 in histone H3.\nA positive control assay is performed using a 100 microliter assay cocktail of 20 mM HEPES pH 7.5, 50 mM NaCl, 1 mM Sodium Ascorbate, 0.05 mM FeSO4, and 5 μM JMJD2A. The assay is initiated by the addition of the cofactor 2-oxoglutarate (2-OG, 0.5 mM) and a 15-residue histone H3 trimethylated Lys9 (H3K9me3) substrate peptide (0.3 mM, H2N-[…](tri-methyl)STGGKA-amide) (SEQ ID NO. 1).\nThree negative control reactions are performed in which 2-OG, the H3K9me3 peptide, and JMJD2A are omitted, respectively. […] Specifically, reactions are performed with 1.0 mM N-oxalylglycine (NOG), a competitive inhibitor of 2-OG, and desferoxamine (0.2 mM), a potent Fe(II) chelator that inhibits the oxidative reaction catalyzed by Fe(II)-dependent JmjC demethylases. […] Fifty microliters of the Luminos reagent solution prepared as described in Example 1 is then added to each reaction and the fluorescence is allowed to develop at 37° C. for 30 minutes. The fluorescence of the formaldehyde-Luminos reagent adduct is measured at 510 nm using an excitation wavelength of 440 nm with a Tecan Safire 2 microplate reader. […]", "data": [{"molecule": "O=C(O)CNC(=O)C(=O)O", "note": "[NOG, N-oxalylglycine]", "values": [{"measurement": "diminishes fluorescence in comparison to the positive control assay", "result": "two-fold"}]}]}
